{
  "source": "patent US8445511B2",
  "about": "“Quinoline or quinoxaline derivatives for treating neurodegenerative diseases” (Centre National de la Recherche Scientifique (SNRS), priority 2008, dated 2013)",
  "key": {"[1]": {"tested_on": "PC12 pheochromocytoma cells", "assay": "Differentiating activity on PC12 pheochromocytoma cells", "format": "cell-based", "settings": "100 nM and 1 μM", "experimental": "The cells are maintained in […] flasks at 37° C. in a humid atmosphere enriched by 5% CO2 in RPMI medium supplemented with 10% horse serum, 5% fetal calf serum, 1% glutamine and 1% penicillin/streptomycin mixture. The horse and fetal calf serums are decomplemented for 40 minutes at 56° C. before use. The cultures are divided when they reach 80% confluence, approximately every 3 days. Each operation is performed by scraping the cells and then centrifugation at 1,000 rpm for 5 minutes, mechanical dissociation of the cell aggregates and inoculation at the dilution desired. Before treatment, the cells are cultivated 5 days in a deprivation medium composed of RPMI supplemented with 1% horse serum, 0.5% fetal calf serum, 1% glutamine, 1% penicillin/streptomycin and 50 ng/ml NGF (nerve growth factor). After 5 days of pretreatment with NGF, the cells are washed twice with PBS (phosphate buffered saline), taken up in deprivation medium, scraped and pelleted at 1,000 rpm for 5 minutes. The cells are then dissociated, counted on a hemocytometer and inoculated at a concentration of 15.6×10^3 cells/cm^2. After 4 hours, the cells are treated by various compounds of the invention at the concentrations desired (stock solutions in absolute ethanol and then a series of dilutions in water). […] At least 20 differentiated cells per well are photographed at random and the length of their neurites are measured using the NeuronJ macro of the ImageJ software. The number of neurites is also counted. Mean total neurite length and number of neurites are then calculated per cell. […] In order to quantify the differentiation of PC12 cells we calculated the ratio between the number of cells emitting dendritic extensions and the total number of cells 48 hours after treatment with our substances at 100 nM and at 1 μM. Morphological changes at the microscopic level were quantified for the cells emitting extensions at approximately 100 cells per condition. Thus number of neurites and mean neurite length per cell were measured using the NeuronJ measurement software by ImageJ."}, "GABAergic neurons": {"tested_on": "GABAergic neurons", "assay": "Measurement of tritiated GABA reuptake in primary mesencephalic cultures", "format": "cell-based, rat", "settings": "12 days of culture; 10 nM and 100 nM; FIG. 6", "experimental": "The primary cultures are treated and cultivated as previously indicated with 0.5 embryo per well in a 24-well plate for 12 days. The medium is then replaced by a medium lacking serum and enriched with glucose (PBS+5 mM glucose). The cells are incubated in this medium for 10 minutes. 50 μl of tritiated GABA in solution (20 μl of 1 mCi/ml ^3H-GABA in 1 ml PBS) is added in each well and the cells are incubated for 5 minutes at 37° C. Since GABA is taken back up very quickly, it is important to be fast when adding reagents and not to handle too many wells at the same time.\nAll wells except one are then washed twice with PBS, and then 500 μl distilled water is added. The cells are scraped and the liquid transferred to scintillation vials containing 7 ml scintillation liquid (Biodegradable Counting Scintillant-liquid scintillation spectroscopy, BCS), well by well. The plate containing the remaining well is placed on ice for 30 minutes, then 50 μl of the same GABA solution is added. After 5 minutes, the well is washed twice with PBS and then the cells are lysed with 500 μl distilled water, scraped and the liquid is transferred to a vial containing 5 ml scintillation liquid. This well will be used to measure non-specificity. The samples are run through the scintillation counter."}},
  "data": [
    {"smiles": "C#CC(O)CCCCCCCCCCCCC#Cc1ccc2ccccc2n1", "note": "(stereo not shown) [Compound N3, 17-(quinolin-2-yl)heptadec-1,16-diyn-3-ol]", "values": [
      {"measurement": "cells producing extensions (percentage of PC12 cells differentiated) by comparison with untreated cells", "setting": "[1]; 48 hours after treatment, FIG. 1A", "result": "two to three times as many cells produce extensions"},
      {"measurement": "mean neurite length per cell compared to the control", "setting": "[1]; PC12 cells, FIG. 1B", "result": "longer"},
      {"measurement": "number of neurites per cell compared to the control", "setting": "[1]; PC12 cells, FIG. 1B", "result": "more"},
      {"measurement": "activity of total neurons of the culture (reuptake of tritiated GABA) versus untreated control", "setting": "GABAergic neurons", "result": "increased"}
    ]}
  ]
}
